Reference: PubChem BioAssay AID1259411 (Chemical Carcinogenesis Research Information System (CCRIS), 2018)
The source made the active and inactive calls. How the calls were made is not given here.

Test system: rodent carcinogenicity bioassays, tumor incidence
Assay: CCRIS carcinogenicity studies
Outline: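 NCI-built, expert-reviewed records of carcinogenicity and related test outcomes (mutagenicity, tumor promotion/inhibition) compiled from published and report sources, historical span 1985-2011, not updated.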

## Cc1c2ccccc2c(C)c2c1ccc1ccccc12
Species: FISH, Strain/Sex: KING COBRA GUPPY/ MALE, FEMALE, Route: IMMERSION, Dose: 0, 0.86, 3.18, 0.90 PPB (LOW DOSE) GIVEN AS SEPARATE DOSES OVER A 4 WK PERIOD, EACH DOSE GIVEN 6 HR/D FOR 1 DAY, 0, 16.3, Dose: 0, 0.86, 3.18, 0.90 PPB (LOW DOSE) GIVEN AS SEPARATE DOSES OVER A 4 WK PERIOD, EACH DOSE GIVEN 6 HR/D FOR 1 DAY, 0, 16.3, Tumor Site: Type of Lesion: LIVER: HEPATOCELLULAR ADENOMA, HEPATOCELLULAR CARCINOMA
  carcinogen call: active; positive
Species: FISH, Strain/Sex: SHEEPSHEAD MINNOW/MALE, FEMALE, Route: IMMERSION, Dose: 0, 1, 30, 1200 PPB APPROXIMATE CONCENTRATIONS ADMINISTERED 1/WK FOR 6 OR 24 HR FOR 1 OR 2 WK (STUDY DURATION: 39 WK), Dose: 0, 1, 30, Tumor Site: Type of Lesion: LIVER: ALTERED FOCI, HEPATOCELLULAR ADENOMA OR HEPATOCELLULAR CARCINOMA
  carcinogen call: active; positive
Species: HAMSTER, Strain/Sex: SYRIAN/FEMALE, Route: TONGUE, Dose: 0, 0.10 ML OF A 0.5% ACETONE SOLUTION TO BORDER OF MIDDLE THIRD PORTION OF TONGUE 3/WK FOR 4 WK (STUDY DURATION: 11 WK)
  carcinogen call: inactive; negative
Species: HAMSTER, Strain/Sex: SYRIAN/FEMALE, Route: TONGUE, Dose: 0, 0.10 ML OF A 0.5% ACETONE SOLUTION TO BORDER OF MIDDLE THIRD PORTION OF TONGUE 3/WK FOR 6 WK (STUDY DURATION: 11 WK), Tumor Site: Type of Lesion: TONGUE: CARCINOMA
  carcinogen call: active; positive
Species: HAMSTER, Strain/Sex: SYRIAN/FEMALE, Route: TONGUE, Dose: 0, 0.10 ML OF A 0.5% ACETONE SOLUTION TO BORDER OF MIDDLE THIRD PORTION OF TONGUE 3/WK FOR 8 WK (STUDY DURATION: 11 WK), Tumor Site: Type of Lesion: TONGUE: CARCINOMA
  carcinogen call: active; positive
Species: HAMSTER, Strain/Sex: SYRIAN/MALE,FEMALE, Route: DERMAL, Dose: 80 µL OF 1% SOLN IN MINERAL OIL ONCE OR 1/WK FOR 3 WK, Tumor Site: Type of Lesion: INTEGUMENTARY SYSTEM (SKIN): PAPILLOMA, SQUAMOUS CELL CARCINOMA, ANGIOMA, MELANOTIC AND ADNEXAL TUMOR
  carcinogen call: active; positive
Species: HAMSTER, Strain/Sex: SYRIAN/MALE,FEMALE, Route: DERMAL, Dose: 80 µL OF 1% SOLN IN MINERAL OIL ONCE, Tumor Site: Type of Lesion: INTEGUMENTARY SYSTEM (SKIN): AMELANOTIC DERMAL MELANOCYTOMA
  carcinogen call: active; positive
Species: HAMSTER, Strain/Sex: SYRIAN/MALE,FEMALE, Route: SUBCUTANEOUS, Dose: 0.005-20 MG IN 1 ML OLIVE OIL ONCE, Tumor Site: Type of Lesion: INJECTION SITE: SARCOMA
  carcinogen call: active; positive
Species: MOUSE, Strain/Sex: ALBINO/MALE, Route: DERMAL, Dose: 0.05% IN OLIVE OIL OR ACETONE, 0.2 ML 2/WK, Tumor Site: Type of Lesion: INTEGUMENTARY SYSTEM (SKIN)
  carcinogen call: active; positive
Species: MOUSE, Strain/Sex: B6C3F1/MALE, Route: INTRAPERITONEAL, Dose: 0, 0.00075, 0.0015, 0.003 UMOL/G IN 10 µL/G TRIOCTANOIN ONCE ON 12 D OF AGE (STUDY DURATION: 10 MO), Dose: 0, 0.00075, 0.0015, 0.003 UMOL/G IN 10 µL/G TRIOCTANOIN ONCE ON 12 D OF AGE (STUDY DURATION: 10 MO), Tumor Site: Type of Lesion: LIVER: HEPATOMA
  carcinogen call: active; positive
Species: MOUSE, Strain/Sex: B6C3F1/MALE, Route: INTRAPERITONEAL, Dose: 0, 0.003, 0.01, 0.03 UMOL/G IN 10 µL/G TRIOCTANOIN ONCE ON 12 D OF AGE (STUDY DURATION: 8.5 MO), Dose: 0, 0.003, 0.01, 0.03 UMOL/G IN 10 µL/G TRIOCTANOIN ONCE ON 12 D OF AGE (STUDY DURATION: 8.5 MO), Tumor Site: Type of Lesion: LIVER: HEPATOMA
  carcinogen call: active; positive
Species: MOUSE, Strain/Sex: B6C3F1/MALE, Route: INTRAPERITONEAL, Dose: 0, 0.01 UMOL/G IN 10 µL/G TRIOCTANOIN ON D 12 OF AGE (STUDY DURATION: 10 MO), Tumor Site: Type of Lesion: LIVER: HEPATOMA
  carcinogen call: active; positive
Species: MOUSE, Strain/Sex: BALB/FEMALE, Route: GAVAGE, Dose: 0.5-2 MG IN ALMOND OIL 1/2 WK OR 2/WK FOR 8-10 WK, Tumor Site: Type of Lesion: OVARIES: GRANULOSA CELL TUMOR
  carcinogen call: active; positive
Species: MOUSE, Strain/Sex: BALB, Route: SUBCUTANEOUS, Dose: 30 UG IN 0.02 ML OF 1% AQ GEL SUSPENDED ONCE, Tumor Site: Type of Lesion: LUNG: ADENOMA, ADENOCARCINOMA
  carcinogen call: active; positive
Species: MOUSE, Strain/Sex: C57BL/FEMALE, Route: DERMAL, Dose: 2.5 MG OF 0.5% SOLN IN 0.5 ML OLIVE OIL 1/2 WK FOR LIFE, Tumor Site: Type of Lesion: INTEGUMENTARY SYSTEM (SKIN)
  carcinogen call: active; positive
Species: MOUSE, Strain/Sex: C57BL, Route: DERMAL, Dose: 0.5 ML OF 0.5% SOLN IN OLIVE OIL 1/2 WK FOR 6 WK, Tumor Site: Type of Lesion: OVARIES
  carcinogen call: active; positive
Species: MOUSE, Strain/Sex: C57BL, Route: DERMAL, Dose: 0.5 ML OF 0.5% SOLN IN OLIVE OIL 1/2 WK FOR 6 WK, Tumor Site: Type of Lesion: OVARIES, MAMMARY GLAND
  carcinogen call: active; positive
Species: MOUSE, Strain/Sex: CBA, Route: SUBCUTANEOUS, Dose: 30 UG IN 15 µL OF 1% AQ GEL ONCE, Tumor Site: Type of Lesion: LUNG
  carcinogen call: active; positive
Species: MOUSE, Strain/Sex: CD-1/FEMALE, Route: SUBCUTANEOUS, Dose: 20 MG/KG IN 1% GEL SOLN WITHIN 24 HR OF BIRTH, Tumor Site: Type of Lesion: LUNG: ADENOMA, ADENOCARCINOMA
  carcinogen call: active; positive
Species: MOUSE, Strain/Sex: CD-1/MALE, Route: SUBCUTANEOUS, Dose: 20 MG/KG IN 1% GEL SOLN WITHIN 24 HR OF BIRTH, Tumor Site: Type of Lesion: LUNG: ADENOMA, ADENOCARCINOMA, LIVER: ADENOMA
  carcinogen call: active; positive
Species: MOUSE, Strain/Sex: ICR, Route: SUBCUTANEOUS, Dose: 0.001, 0.01, 0.1 MG IN 0.05 ML TRICAPRYLIN, Dose: 0.001, 0.01, 0.1 MG IN 0.05 ML TRICAPRYLIN, Tumor Site: Type of Lesion: INJECTION SITE: FIBROSARCOMA, SQUAMOUS CELL CARCINOMA, SARCOMA
  carcinogen call: active; positive
Species: MOUSE, Strain/Sex: MALE,FEMALE, Route: DERMAL, Dose: 0.1 ML OF 0.1% SOLN IN ACETONE 1/WK FOR 9 WK, Tumor Site: Type of Lesion: INTEGUMENTARY SYSTEM (SKIN): PAPILLOMA, MALIGNANT PAPILLOMA
  carcinogen call: active; positive
Species: MOUSE, Strain/Sex: SENCAR/FEMALE, Route: GAVAGE, Dose: 0, 20, 60, 200 UG IN 0.1 ML CORN OIL 1/D 5 D/WK FOR 6 WK (STUDY DURATION: 53 WK), Dose: 0, 20, 60, 200 UG IN 0.1 ML CORN OIL 1/D 5 D/WK FOR 6 WK (STUDY DURATION: 53 WK), Tumor Site: Type of Lesion: LYMPHATIC SYSTEM: LYMPHOMA, MAMMARY GLAND: CARCINOMA
  carcinogen call: active; positive
Species: MOUSE, Strain/Sex: SWISS/FEMALE, Route: DERMAL, Dose: 0, 1, 4, 8 NMOL IN 100 µL ACETONE 2/WK FOR 40 WK (STUDY DURATION: 48 WK), Dose: 0, 1, 4, 8 NMOL IN 100 µL ACETONE 2/WK FOR 40 WK (STUDY DURATION: 48 WK), Tumor Site: Type of Lesion: SKIN: TUMORS
  carcinogen call: active; positive
Species: MOUSE, Strain/Sex: SWISS/FEMALE, Route: DERMAL, Dose: 20-500 UG IN ACETONE ONCE, Tumor Site: Type of Lesion: INTEGUMENTARY SYSTEM (SKIN): SQUAMOUS CELL CARCINOMA, SARCOMA, EPITHELIOMA
  carcinogen call: active; positive
Species: MOUSE, Strain/Sex: SWISS/FEMALE, Route: DERMAL, Dose: 100, 200 UG IN 50 µL ACETONE ONCE, Tumor Site: Type of Lesion: INTEGUMENTARY SYSTEM (SKIN): PAPILLOMA, CARCINOMA, SARCOMA
  carcinogen call: active; positive
Species: MOUSE, Strain/Sex: SWISS/MALE,FEMALE, Route: SUBCUTANEOUS, Dose: 0.9 MG SUSPENDED IN 0.45 ML 1% AQ GEL ONCE, Tumor Site: Type of Lesion: INJECTION SITE: FIBROSARCOMA, SQUAMOUS CELL CARCINOMA
  carcinogen call: active; positive
